Measurements published in patent US7026527B2, “Plant methionine synthase gene and methods for increasing the methionine content of the seeds of plants” (priority 1995, dated 2006).

Assays:
[1] = tested on: E. coli strain Gif106M1 transformed with pBT436; assay type: cell-based; settings: M9 media with arginine, isoleucine, ampicillin
Description: To establish that the cloned lysC gene was functional, pBT436 was transformed into E. coli strain Gif106M1 (E. coli Genetic Stock Center strain CGSC-5074) which has mutations in each of the three E. coli AK genes [Theze et al., J. Bacteriol., (1974), 117, 133-143|. This strain lacks all AK activity and therefore requires diaminopimelate (a precursor to lysine which is also essential for cell wall biosynthesis), threonine and methionine.
M9 media [see Sambrook et al. (1989) Molecular Cloning: A Laboratory Manual, Cold Spring Harbor Laboratory Press| supplemented with the arginine and isoleucine, required for Gif106M1 growth, and ampicillin, to maintain selection for the pBT436 plasmid, was used. […] This property of pBT436-transforned Gif106M1 was used to select for mutations in lysC that encoded lysine-insensitive AKIII.

[2] = molecular target: T1, AKII-HDHII (AK activity) (Escherichia coli, UniProt P00562); experiment: AK activity of AKII-HDHII extract (clone 5), inhibition by pathway end-products; assay type: biochemical, E. coli; settings: 30 mM end-product; extract from clone 5
T1 construct: The primers also add a Kpn I site immediately following the translation stop codon; made in house; host or cells: E. coli BL21(DE3), pBT430-derived T7 vector; supernatant of sonicated cells (clone 5, plasmid pBT718)
Description: These four were then assayed for AK activity. AK activity was assayed as shown below:
(§1) Assay mix (for 12×1.0 mL or 48×0.25 mL assays): • 2.5 mL H2O • 2.0 mL 4M KOH • 2.0 mL 4M NH2OH—HCl • 1.0 mL 1M Tris-HCl pH 8.0 • 0.5 mL 0.2M ATP (121 mg/ml in 0.2M NaOH) • 50 μL 1M MgSO4
pH of assay mix should be 7-8
(§2) Each 1.5 mL eppendorf assay tube contains:
(§3) Assay tubes are incubated at 30° C. for 30-60 min […];
(§4) Spin for 2 min in eppendorf centrifuge tube. Read OD at […].
Two extracts also had high levels of AK enzyme activity. These two extracts were then tested for inhibition of AK or HDH activity by the pathway end-products, lys, thr and met.

[3] = molecular target: T2, AKII-HDHII (HDH activity) (Escherichia coli, UniProt P00562); experiment: HDH activity of AKII-HDHII extract (clone 5), inhibition by pathway end-products; assay type: biochemical, E. coli; settings: 30 mM end-product; extract from clone 5
T2 construct: The primers also add a Kpn I site immediately following the translation stop codon; made in house; host or cells: E. coli BL21(DE3), pBT430-derived T7 vector; supernatant of sonicated cells (clone 5, plasmid pBT718)
Description: The cells were collected by centririgation and resuspended in 1/25th the original culture volume in 50 mM NaCl; 50 mM Tris-Cl, pH 7.5; 1 mM EDTA, and frozen at −20° C., thawed at 37° C. and sonicated, in an ice-water bath, to lyse the cells. The lysate was centrifuged at 4° C. for 5 min at 12,000 rpm. The supernatant was removed and the pellet was resuspended in the above buffer. The supernatant fractions were assayed for HDH enzyme activities to identify clones expressing functional proteins. HDH activity was assayed as shown below: HDH ASSAY
Make Mixture of above reagents with amounts multiplied by number of assays. Use 0.9 mL of mix for 1 mL assay; 180 μL of mix for 0.2 mL assay in microtiter dish
to ½ the assay mix; remaining ½ lacks ASA to serve as blank
Add enzyme extract last to start reaction. Incubate at ˜30° C.; monitor NADPH oxidation at 340 nM. 1 unit oxidizes 1 μmol NADPH/min at 30° C. in the 1 mL reaction.

[4] = molecular target: T3, wild type AKIII (Escherichia coli, UniProt P08660); experiment: Lysine inhibition of wild type AKIII aspartokinase activity; assay type: biochemical, E. coli
T3 construct: made in house; host or cells: E. coli Gif106M1 (lacks all AK activity) transformed with pBT436
Description: (§5) Single colonies of Gif106M1 transformed with pBT436 were picked and resuspended in 200 μL of a mixture of 100 μL 1% lysine plus 100 μL of M9 media. The entire cell suspension containing 10^7-10^8 cells was spread on a petri dish containing M9 media supplemented with the arginine, isoleucine, and ampicillin. Sixteen petri dishes were thus prepared. From 1 to 20 colonies appeared on 11 of the 16 petri dishes. One or two (if available) colonies were picked and retested for lysine resistance and from this nine lysine-resistant clones were obtained. Plasmid DNA was prepared from eight of these and re-transformed into Gif106M1 to determine whether the lysine resistance determinant was plasmid-borne. Six of the eight plasmid DNAs yielded lysine-resistant colonies. Three of these six carried lysC genes encoding AKIII that was uninhibited by 15 mM lysine, whereas wild type AKIII is 50% inhibited by 0.3-0.4 mM lysine and >90% inhibited by 1 mM lysine.
as §1, §2, §3, §4

[5] = molecular target: T4, wild type AKIII (Escherichia coli, UniProt P08660, G401A); experiment: as above; assay type: biochemical, E. coli; settings: read-out: inhibition of AKIII
T4 construct: made in house; host or cells: E. coli Gif106M1 (lacks all AK activity) transformed with pBT436
Description: as §5, §1, §2, §3, §4

[6] = molecular target: T5, AKIII encoded by mutant lysC genes (lysine-insensitive) (Escherichia coli, UniProt P08660, G401A/T352I); assay type: biochemical, E. coli; settings: 15 mM lysine; three mutant lysC genes (M2, M3, M4)
T5 construct: made in house; host or cells: E. coli Gif106M1 carrying mutated pBT436 plasmids
Description: as §5
The sequences of the three mutant lysC genes that encoded lysine-insensitive AK each differed from the wild type sequence by a single nucleotide, resulting in a single amino acid substitution in the protein. […] Thus, either of these single amino acid substitutions is sufficient to render the AKIII enzyme insensitive to lysine inhibition. […]
as §4

T1 sequence (P00562 other isoform, or with tags, fused parts or gaps): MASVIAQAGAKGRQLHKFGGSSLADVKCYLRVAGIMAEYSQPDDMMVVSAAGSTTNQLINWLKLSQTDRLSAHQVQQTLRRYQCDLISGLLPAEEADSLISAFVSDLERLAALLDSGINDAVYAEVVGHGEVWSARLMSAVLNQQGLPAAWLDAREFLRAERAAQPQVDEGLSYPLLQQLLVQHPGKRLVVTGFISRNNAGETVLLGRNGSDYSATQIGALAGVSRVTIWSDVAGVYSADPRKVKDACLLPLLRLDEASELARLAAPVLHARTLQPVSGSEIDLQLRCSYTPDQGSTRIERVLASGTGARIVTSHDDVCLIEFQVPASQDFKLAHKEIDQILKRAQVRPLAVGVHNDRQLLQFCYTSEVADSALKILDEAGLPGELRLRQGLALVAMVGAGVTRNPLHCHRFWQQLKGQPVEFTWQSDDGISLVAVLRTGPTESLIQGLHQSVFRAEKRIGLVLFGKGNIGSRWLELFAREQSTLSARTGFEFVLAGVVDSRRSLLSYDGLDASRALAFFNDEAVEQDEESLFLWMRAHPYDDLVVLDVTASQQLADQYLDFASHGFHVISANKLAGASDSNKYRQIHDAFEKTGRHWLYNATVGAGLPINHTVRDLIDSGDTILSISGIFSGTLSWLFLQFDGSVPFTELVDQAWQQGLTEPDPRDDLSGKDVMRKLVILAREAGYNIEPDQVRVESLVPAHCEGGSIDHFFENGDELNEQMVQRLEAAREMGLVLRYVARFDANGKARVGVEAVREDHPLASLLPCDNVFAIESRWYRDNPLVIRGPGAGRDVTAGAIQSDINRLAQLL
T2 sequence (P00562 other isoform, or with tags, fused parts or gaps): as above
T4 sequence (P08660 2-449 G401A): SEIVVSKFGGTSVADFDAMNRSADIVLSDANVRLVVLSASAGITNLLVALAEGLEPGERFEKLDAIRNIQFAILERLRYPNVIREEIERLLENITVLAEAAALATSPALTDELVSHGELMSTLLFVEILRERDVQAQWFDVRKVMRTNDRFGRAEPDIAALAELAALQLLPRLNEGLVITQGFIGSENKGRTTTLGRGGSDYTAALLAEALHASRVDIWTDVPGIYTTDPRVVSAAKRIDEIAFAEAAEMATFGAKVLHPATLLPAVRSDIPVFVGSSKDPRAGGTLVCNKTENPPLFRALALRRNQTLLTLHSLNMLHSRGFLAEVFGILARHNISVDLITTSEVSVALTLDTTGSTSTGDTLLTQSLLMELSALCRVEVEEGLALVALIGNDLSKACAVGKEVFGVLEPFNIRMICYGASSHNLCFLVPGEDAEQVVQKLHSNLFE
T3 sequence (P08660 2-449 G401A): as above
T5 sequence (P08660 2-449 T352I/G401A): as the sequence (P08660 2-449 G401A) above, with T351I counted along it

Structure (SMILES): NC(CCCC(N)C(=O)O)C(=O)O (centres unmarked) [diaminopimelate]
- concentration in growth medium that inhibits growth [1]: approximately 0.2 mM

Structure (SMILES): C[C@@H](O)[C@H](N)C(=O)O [threonine]
- inhibition of AK activity [2]: Neither the AK nor the HDH activity of the extract from clone 5 was inhibited
- inhibition of HDH activity [3]: Neither the AK nor the HDH activity of the extract from clone 5 was inhibited

Structure (SMILES): CSCC[C@H](N)C(=O)O [methionine]
- inhibition of AK activity [2]: Neither the AK nor the HDH activity of the extract from clone 5 was inhibited
- inhibition of HDH activity [3]: Neither the AK nor the HDH activity of the extract from clone 5 was inhibited

Structure (SMILES): NCCCC[C@H](N)C(=O)O [lysine]
- IC50 [4]: 300 to 400 µM
- inhibition at 1000 µM [5]: > 90%
- inhibition of mutant AKIII [6]: uninhibited
- concentration in growth medium that inhibits growth [1]: approximately 0.2 mM
- inhibition of AK activity [2]: Neither the AK nor the HDH activity of the extract from clone 5 was inhibited
- inhibition of HDH activity [3]: Neither the AK nor the HDH activity of the extract from clone 5 was inhibited
